Measurements from patent US12343363B2, “Lactic acid bacterial composition for the treatment of bacterial vaginal infections by Gardnerella vaginalis and, if present, of concurrent fungal infections” (PROBIOTICAL S.P.A., priority 2016, dated 2025).
Values after ≈ are worked out from the molar mass of the structure shown.

What was measured:
Candida albicans = assay: Single-blind clinical study of LF5 vaginal capsules compared with miconazole; assay type: in vivo, human
Experimental: 100 patients with vaginal candidiasis, average age of 38.0 years (range 19-61 years) randomly assigned to two groups, which resulted homogeneous, each of 50 patients treated with miconazole or LF5 dosed at ≤10^9 in vaginal capsule formulation at a dosage of 1 vaginal capsule at night for three consecutive days, according to the single-blind experimental design were treated.
No discontinuations during the treatment nor during the two weeks of post-treatment observation occurred; thus two groups of 50 observations for efficacy and tolerability are provided.

[1] = test system: C. parapsilosis ATCC 22019; assay: Miconazole broth macrodilution test (optical density); assay type: cell-based, Candida parapsilosis
From the text: (§1) The strains of Candida being used in the present study were purchased from the American Type Culture Collection (ATCC). Specifically, the following biotypes were used: C. albicans ATCC 10231, C. parapsilosis ATCC 22019, C. krusei ATCC 6258, C. glabrata ATCC 2001 and C. tropicalis ATCC 750 (14). The strains of lactobacilli of this study, all isolated from vaginal swabs of healthy female subjects or directly brushing the intestinal mucosa of healthy humans, were classified based on their phenotypic and genotypic characteristics: L. fermentum LF5 (DSM 32277), L. fermentum LF09 (DSM 18298), L. fermentum LF10 (DSM 19187) and L. fermentum LF11 (DSM 19188).
(§2) The probiotic strains were cultured overnight in De Man, Rogosa and Sharpe (MRS) medium (Difco, B D, Maryland). In all the experiments, fresh culture media for all the strains of Candida were used. Before the experiment, the single strains of Candida were cultured in Sabouraud Dextrose Broth (Difco, B D, Maryland), an optimal medium for yeasts, for 48 hours under aerobic conditions.
(§3) Evaluation of the fungicidal activity. The minimum inhibitory concentration (MIC) for fluconazole was determined by E-test (bioMerieux Italy, Florence) with MHE agar. The plates were incubated under aerobic conditions at 30° C. and read after 24 hours. Furthermore, since there is no specific E-test for miconazole, the MIC was determined by using the broth macrodilution method. We assessed the activity of serially diluted fluconazole and miconazole (Sigma-Aldrich, Missouri, USA) (from […] to […]) against the Candida strains. Serial dilutions of azoles were prepared in Sabouraud Dextrose Broth in the presence of strains of Candida and broths were incubated under aerobic conditions at 30° C. and then read at an optical density (DO) of 560 nm.

C. albicans ATCC 10231 = assay: as above; assay type: cell-based, Candida albicans
From the text: as §1, §2, §3

C. tropicalis ATCC 750 = assay: as above; assay type: cell-based, Candida tropicalis
From the text: as §1, §2, §3

C. krusei ATCC 6258 = assay: as above; assay type: cell-based, Candida krusei
From the text: as §1, §2, §3

C. glabrata ATCC 2001 = assay: as above; assay type: cell-based, Candida glabrata
From the text: as §1, §2, §3

[2] = test system: Candida glabrata ATCC 2001; assay: Fluconazole MIC by E-test; assay type: cell-based; details: Nakaseomyces glabratus, ATCC2001; E_test, range 0.016-256 μg/ml; read-out: MIC (minimum inhibitory concentration)
From the text: as §1, §3

Candida krusei ATCC 6258 = assay: Fluconazole MIC by E-test; assay type: cell-based; details: Pichia kudriavzevii, ATCC6258; E_test, range 0.016-256 μg/ml; read-out: MIC (minimum inhibitory concentration)
From the text: as §1, §3

[3] = test system: Candida parapsilosis ATCC 22019; assay: Fluconazole MIC by E-test; assay type: cell-based; details: Lodderomyces parapsilosis, ATCC22019; E_test, range 0.016-256 μg/ml; read-out: MIC (minimum inhibitory concentration)
From the text: as §1, §3

[4] = test system: Candida tropicalis ATCC 750; assay: Fluconazole MIC by E-test; assay type: cell-based; details: ATCC750, E_test, range 0.016-256 μg/ml, read-out: MIC (minimum inhibitory concentration)
From the text: as §1, §3

[5] = Miconazole 1 μg/ml, broth macrodilution

Clc1ccc(COC(Cn2ccnc2)c2ccc(Cl)cc2Cl)c(Cl)c1 (stereo not drawn) [Miconazole, miconazole]
local adverse events (Candida albicans; 50 patients per group): 6 cases
Positive/negative (Candida albicans; 3 days, 1 vaginal capsule at night for three consecutive days, 50 patients per group): 3/47
Positive/negative (Candida albicans; Final (two weeks of post-treatment observation), 50 patients per group): 8/42
microbiological eradication of Candida, patients (Candida albicans; at the end of the three-day treatment): 94%
frequency of local adverse events (Candida albicans; female, human, in vivo, 3 days): 12%
Adverse events: Adverse (Candida albicans; number of 50 patients): 47
Adverse events: Present (Candida albicans; number of 50 patients): 3
Eradication: Failure (Candida albicans; number of 50 patients): 3
Eradication: Relapse (Candida albicans; number of 50 patients): 5
Eradication: Success (Candida albicans; number of 50 patients): 42
Patient's opinion about efficacy: Acceptable (Candida albicans; number of 50 patients): 5
Patient's opinion about efficacy: Excellent (Candida albicans; number of 50 patients): 38
Patient's opinion about efficacy: Good (Candida albicans; number of 50 patients): 4
Patient's opinion about efficacy: None (Candida albicans; number of 50 patients): 3
Tolerability opinion: Acceptable (Candida albicans; number of 50 patients): 3
Tolerability opinion: Excellent (Candida albicans; number of 50 patients): 44
Tolerability opinion: Good (Candida albicans; number of 50 patients): 3
Tolerability opinion: None (Candida albicans; number of 50 patients): 0
MIC ([1]; Lodderomyces parapsilosis, ATCC22019, C. parapsilosis ATCC 22019): 1000 µg/mL (≈ 2400 µM)
optical density, OD ([1]; Miconazole 1.000 μg/ml): 0.295
optical density, OD [1, 5]: 1.515
optical density, OD ([1]; Miconazole 2.50 μg/ml): 1.115
optical density, OD ([1]; Miconazole 5.00 μg/ml): 0.975
optical density, OD ([1]; Miconazole 50 μg/ml): 0.894
optical density, OD ([1]; Miconazole 250 μg/ml): 0.701
optical density, OD ([1]; Miconazole 300 μg/ml): 0.415
optical density, OD ([1]; Miconazole 500 μg/ml): 0.314
optical density, OD (C. albicans ATCC 10231; Miconazole 1.000 μg/ml): 1.464
optical density, OD (C. albicans ATCC 10231; [5]): 1.906
optical density, OD (C. albicans ATCC 10231; Miconazole 2.50 μg/ml): 1.910
optical density, OD (C. albicans ATCC 10231; Miconazole 5.00 μg/ml): 1.901
optical density, OD (C. albicans ATCC 10231; Miconazole 50 μg/ml): 1.905
optical density, OD (C. albicans ATCC 10231; Miconazole 250 μg/ml): 1.916
optical density, OD (C. albicans ATCC 10231; Miconazole 300 μg/ml): 1.889
optical density, OD (C. albicans ATCC 10231; Miconazole 500 μg/ml): 1.863
optical density, OD (C. tropicalis ATCC 750; Miconazole 1.000 μg/ml): 1.931
optical density, OD (C. tropicalis ATCC 750; [5]): 1.950
optical density, OD (C. tropicalis ATCC 750; Miconazole 2.50 μg/ml): 1.927
optical density, OD (C. tropicalis ATCC 750; Miconazole 5.00 μg/ml): 1.908
optical density, OD (C. tropicalis ATCC 750; Miconazole 50 μg/ml): 1.846
optical density, OD (C. tropicalis ATCC 750; Miconazole 250 μg/ml): 1.942
optical density, OD (C. tropicalis ATCC 750; Miconazole 300 μg/ml): 1.937
optical density, OD (C. tropicalis ATCC 750; Miconazole 500 μg/ml): 1.903
optical density, OD (C. krusei ATCC 6258; Miconazole 1.000 μg/ml): 1.972
optical density, OD (C. krusei ATCC 6258; [5]): 1.990
optical density, OD (C. krusei ATCC 6258; Miconazole 2.50 μg/ml): 1.900
optical density, OD (C. krusei ATCC 6258; Miconazole 5.00 μg/ml): 1.893
optical density, OD (C. krusei ATCC 6258; Miconazole 50 μg/ml): 1.994
optical density, OD (C. krusei ATCC 6258; Miconazole 250 μg/ml): 2.004
optical density, OD (C. krusei ATCC 6258; Miconazole 300 μg/ml): 1.999
optical density, OD (C. krusei ATCC 6258; Miconazole 500 μg/ml): 1.988
optical density, OD (C. glabrata ATCC 2001; Miconazole 1.000 μg/ml): 2.198
optical density, OD (C. glabrata ATCC 2001; [5]): 2.260
optical density, OD (C. glabrata ATCC 2001; Miconazole 2.50 μg/ml): 2.260
optical density, OD (C. glabrata ATCC 2001; Miconazole 5.00 μg/ml): 2.246
optical density, OD (C. glabrata ATCC 2001; Miconazole 50 μg/ml): 2.239
optical density, OD (C. glabrata ATCC 2001; Miconazole 250 μg/ml): 2.212
optical density, OD (C. glabrata ATCC 2001; Miconazole 300 μg/ml): 2.215
optical density, OD (C. glabrata ATCC 2001; Miconazole 500 μg/ml): 2.213

OC(Cn1cncn1)(Cn1cncn1)c1ccc(F)cc1F [fluconazole]
MIC [2]: > 256 µg/mL
MIC (Candida krusei ATCC 6258): > 256 µg/mL
MIC [3]: 1 µg/mL (≈ 3.27 µM)
MIC [4]: > 256 µg/mL
